The source of these data is patent US12390467B2, “Necroptosis inducers or autophagy inhibitors or a combination thereof” (The University of Toledo, priority 2018, dated 2025).

A value given as a limit tells only on which side of the number the result lay.

Holding throughout (assay type): cell-based
The subject of assay [1] is MCF-7 (non-TNBC cell line). The experiment in a line: MTT cell viability assay, MCF-7. As to conditions: Homo sapiens, MCF7, 72 h, read-out: IC50 ± SD, MCF-7. How it is done:
(§1) The following cancer and non-cancer cell lines were used in the initial cytotoxicity screening of the TPH104 compounds: triple negative breast cancer (TNBC): MDA-MB468, MDA-MB 231, and BT-20; non-TNBC: MCF-7 and ZR-75-1; ovarian: Ov2008; prostate: DU145; colon: HCT-116, S1, and LOVO; lung: H460; normal kidney: HEK-293; normal breast: HMEC; and normal colon: CRL-1459. All cells were cultured in Dulbecco's modified Eagle medium (DMEM), supplemented with 10% fetal bovine serum (FBS), and 1% penicillin/streptomycin (P/S). Cells were allowed to grow as adherent monolayers in T25 flasks in a humidified incubator with 5% CO2 at 37° C. for a period of 24 h, unless otherwise specified for certain experiments.
(§2) The MTT assay was used to determine the cytotoxicity of all of the compounds. Briefly, in a 96-well flat-bottom cell culture plate, the cells were seeded at a density between 3-5×10^3 cells/well (180 μl in each well) and incubated for 24 h (a hemocytometer was used for cell counting). The next day, the cells were incubated with different concentrations of the nine compounds (0, 0.1, 0.3, 1, 3, 10, 30, and 100 μM) for 72 h. After 72 h, 20 μl of 5 mg/ml of 3-(4,5-dimethylthiazol-2-yl)-2,5-diphenyltetrazolium bromide (MTT) was added to the plate and incubated with the cells for 3 h at 37° C. In this experiment, the living cells will reduce the soluble MTT dye to non-soluble purple formazan crystals. Following incubation, the media containing MTT removed via suction and 100 μL of 100% dimethyl sulfoxide (DMSO) was added to dissolve the formazan crystals. Subsequently, the plate was shaken for 2 minutes and the absorbance was measured at a wavelength of 570 nm using a SpectraMax iD3 Multi-Mode Microplate Reader (Molecular Devices, Sunnyvale, CA). The IC50 values of each compound were calculated and used to determine the selectivity ratio (IC50 in normal cells/IC50 in cancer cells) of each compound as previously described. Based on the results obtained from these experiments, the compound TPH104, which had the lowest IC50 value, was selected for further experiments.
On the technique in general: Formazan colour is commonly taken as a measure of viable cells.

For another assay, the system named is TNBC cell lines. Kind of assay: Cytotoxicity screening (MTT), TNBC cell lines overall. As to conditions: classification of Table 1 cytotoxicity data.
Excerpt: To this end, several commercial databases were searched, and 17 similar molecules from the VitasM database were retrieved with considerable structural diversity in terms of the substitution on the aryl ring A attached to the thienopyrimidine scaffold and aryl ring B attached to hydrazino moiety. Further, the biological evaluation of the 17 molecules sheds light on the structural features deemed important for the selective cytotoxicity shown by this class of molecules. With this understanding, the 17 molecules were subjected to a screening protocol comprising of two TNBC, two non-TNBC, and one normal cell lines.
as §1, §2

Assay [2] has as its system normal human mammary epithelial cells (HMEC). Kind of assay: MTT cell viability assay, HMEC. As to conditions: Homo sapiens, HMEC; MTT, 72 h; Normal; read-out: IC50 ± SD, HMEC. How it is done: as §1, §2
Assay [3] relates to ZR-75-1 (non-TNBC cell line). Kind of assay: MTT cell viability assay, ZR-75-1. The settings on record: Homo sapiens, ZR-75-1, 72 h, read-out: IC50 ± SD, ZR-75-1. How it is done: as §1, §2
The subject of assay [4] is MDA-MB231 (TNBC cell line). The experiment in a line: MTT cell viability assay, MDA-MB231. As to conditions: Homo sapiens, MDA-MB-231, 72 h, read-out: IC50 ± SD, MDA-MB231. How it is done:
as §1, §2

Assay [5] concerns MDA-MB468 (TNBC cell line). The experiment in a line: MTT cell viability assay, MDA-MB468. The settings on record: Homo sapiens, MDA-MB-468, 72 h, read-out: IC50 ± SD, MDA-MB468. How it is done: as §1, §2
Assay [6] deals with RIP, p-RIP, MLKL, caspase 8 in MDA-MB468 cells. Kind of assay: Western blot, necroptotic proteins, MDA-MB468. As to conditions: 100 μM. How it is done: The TNBC cells were seeded in a culture flask and incubated for 24 h. The cells were then incubated with different concentrations of the lead compounds and re-incubated for an additional 12 or 24 h. […] The bicinchoninic acid (BCA) was used to determine protein concentration in the cell extracts (G-BIOSCIENCES, St. Louis, MO, USA). […] The membrane was blocked using 5% milk in Tris-buffered Tween 20 saline for 30 minutes. The membrane was then incubated overnight with primary antibodies against Bak, Bax, Bcl-2, caspase9, caspase 3, caspase 7, PARP, cytochrome c, N-cadherin, E-cadherin, c-Myc, dishevelled segment polarity protein 3 (DVL3), dishevelled segment polarity protein 2 (DVL2), Vimentin, mitogen-activated protein kinase kinase (MAPKK also known as MEK1/2), β-catenin, low-density lipoprotein receptor-related protein 6 (LRP6), receptor-interacting protein kinase (RIP), phosphorylated RIP (p-RIP), mixed lineage kinase domain like pseudokinase(MLKL), Caspase 8, light chain 3 (LC3), lysosomal-associated membrane protein 1 (LAMP1), unc-51 like autophagy activating kinase 1 (ULK1), ras associated protein 7 (Rab7), ras associated protein 5 (Rab5), Beclin 1, mechanistic target of rapamycin (mTOR), tumor necrosis factor alpha (TNF-α), tumor necrosis factor receptor 1 (TNFR1), tumor necrosis factor receptor 2 (TNFR2), Fas-associated protein with death domain (FADD), Fas ligand (Fas), TNF-related apoptosis-inducing ligand (TRAIL), death receptor 5 (DR5), Tumor necrosis factor receptor type 1-associated DEATH domain (TRADD), receptor-interacting protein kinase 3 (RIP3), β-actin or GAPDH in 1:1000 dilution in 5% milk or 5% BSA at 4° C. Horseradish peroxidase-labeled (HRP) anti-rabbit or anti-mouse secondary antibodies (1:5,000 dilution) were added and incubated the next day for an additional 1 h. A ChemiDoc™ MP System imaging system from Bio-Rad (Hercules, CA, USA) was used for blots reading. Blots were used to obtain the protein bands, followed by quantification of the bands using image J software (NIH, Bethesda, MD, USA). All of the data were expressed as the ratio of β-actin or GAPDH.
In general terms: Immunoblotting shows a protein as a band on a membrane.

As usually defined, the IC50 is the midpoint of a concentration-inhibition curve. Regarding `Oc1ccccc1/C=N/Nc1ncnc2scc(-c3ccc(Cl)cc3)c12` [TPH104a], the IC50 in assay [1] stood at 6.96 ± 1.15 µM; in assay [2], 27.9 ± 8.95 µM; in assay [3], 2.29 ± 0.23 µM; in assay [4] it was 0.28 ± 0.06 µM; in assay [5], 0.44 ± 0.26 µM. In the assay with TNBC cell lines, the “potency compared to TPH104” value was “comparable potency to that of TPH104”.
Regarding `Oc1c(/C=N/Nc2ncnc3scc(-c4ccccc4)c23)cc2c3c1CCCN3CCC2` [TPH104b], the IC50 in assay [1] was 1.52 ± 0.57 µM; in assay [2] it was greater than 100 µM; in assay [3], 1.18 ± 0.53 µM; in assay [4], 0.25 ± 0.02 µM; in assay [5], 0.23 ± 0.05 µM. In addition, the “potency compared to TPH104” value in the assay on TNBC cell lines was “equipotent to TPH104”.
`COc1cccc(/C=N/Nc2ncnc3scc(-c4ccccc4)c23)c1O` [TPH104c]: the IC50 in assay [1] is greater than 100 µM; in assay [2], greater than 100 µM; in assay [3], 10.7 ± 1.1 µM; in assay [4], 0.23 ± 0.01 µM; in assay [5], 0.18 ± 0.02 µM. The “potency compared to TPH104” value in the assay with TNBC cell lines is listed as “equipotent to TPH104”.
For the compound `Cc1ccc(-c2csc3ncnc(N/N=C/c4ccccc4O)c23)cc1` [TPH104d], the IC50 in assay [1] was greater than 100 µM; in assay [2], 33.1 ± 2.33 µM; in assay [3], 6.05 ± 2.02 µM; in assay [4], 2.29 ± 0.16 µM; in assay [5], 2.22 ± 1.82 µM. Also, the “potency compared to TPH104” value in the assay with TNBC cell lines is given as “moderate potency compared to TPH104”.
For the compound `COc1cc(OC)c(OC)cc1/C=N/Nc1ncnc2scc(-c3ccccc3)c12` [TPH104e], the IC50 in assay [1], in assay [2], in assay [3], in assay [4] and in assay [5] was greater than 100 µM each time. In addition, the “potency compared to TPH104” value in the assay on TNBC cell lines is listed as “poor or no potency”.
Regarding `COc1ccccc1/C=N/Nc1ncnc2scc(-c3ccccc3)c12` [TPH104f], the IC50 in assay [1] was greater than 100 µM; in assay [2], greater than 100 µM; in assay [3], greater than 100 µM; in assay [4], 29.38 ± 0.08 µM; in assay [5], 7.87 ± 1.53 µM. The “potency compared to TPH104” value with TNBC cell lines is listed as “poor or no potency”.
In the case of `COc1ccc(/C=N/Nc2ncnc3scc(-c4ccc(C)cc4)c23)c(OC)c1OC` [TPH104g], the IC50 in assay [1] was 27.2 ± 2.92 µM; in assay [2], greater than 100 µM; in assay [3] it was 28.9 ± 2.61 µM; in assay [4] it was 27.64 ± 0.15 µM; in assay [5] it was 27.3 ± 4.53 µM. For the same compound, in the assay on TNBC cell lines, the “potency compared to TPH104” value was “poor or no potency”.
For the compound `COc1cccc(/C=N/Nc2ncnc3scc(-c4ccccc4)c23)c1OC` [TPH104h], the IC50 was 63 ± 2.89 µM in assay [1]; greater than 100 µM in assay [2]; greater than 100 µM in assay [3]; 96.7 ± 0.14 µM in assay [4]; greater than 100 µM in assay [5]. In the assay with TNBC cell lines, the “potency compared to TPH104” value was “poor or no potency”.
In the case of `COc1ccc(/C=N/Nc2ncnc3scc(-c4ccccc4)c23)c(OC)c1` [TPH104i], the IC50 in assay [1], in assay [2], in assay [3], in assay [4] and in assay [5] was greater than 100 µM throughout. Also, in the assay with TNBC cell lines, the “potency compared to TPH104” value is “poor or no potency”.
`Oc1ccccc1/C=N/Nc1ncnc2scc(-c3ccccc3)c12` [TPH104j]: the IC50 in assay [1] worked out at 2.84 ± 0.96 µM; in assay [2], 4.52 ± 1.38 µM; in assay [3] it was 3.42 ± 1.53 µM; in assay [4] it was 0.78 ± 0.28 µM; in assay [5] it was 0.56 ± 0.34 µM. In addition, the “potency compared to TPH104” value in the assay with TNBC cell lines is recorded as “moderate potency compared to TPH104”.
With `Oc1cc(Br)ccc1/C=N/Nc1ncnc2scc(-c3ccccc3)c12` [TPH104k], the IC50 in assay [1] was 15.6 ± 6.5 µM; in assay [2], greater than 100 µM; in assay [3] it was 6.07 ± 5.18 µM; in assay [4] it was 1.29 ± 0.52 µM; in assay [5], 0.91 ± 0.09 µM. In addition, the “potency compared to TPH104” value in the assay with TNBC cell lines is “moderate potency compared to TPH104”.
As for `Oc1ccc(/C=N/Nc2ncnc3scc(-c4ccccc4)c23)c(O)c1` [TPH104l], the IC50 in assay [1] was 6.59 ± 0.58 µM; in assay [2], greater than 100 µM; in assay [3] it was 8.68 ± 1.04 µM; in assay [4] it was 0.78 ± 0.38 µM; in assay [5], 1.47 ± 0.84 µM. In addition, the “potency compared to TPH104” value in the assay with TNBC cell lines is listed as “moderate potency compared to TPH104”.
With `CCOc1cc(/C=N/Nc2ncnc3scc(-c4ccccc4)c23)ccc1O` [TPH104n], the IC50 in assay [1] was greater than 100 µM; in assay [2] it was greater than 100 µM; in assay [3], 21.5 ± 3.67 µM; in assay [4], 23.1 ± 1.88 µM; in assay [5], 21.7 ± 0.3 µM. For the same compound, in the assay on TNBC cell lines, the “potency compared to TPH104” value is “poor or no potency”.
On to `Cc1ccc(-c2csc3ncnc(N/N=C/c4ccc(C)cc4O)c23)cc1` [TPH104o], for which the IC50 is 1.22 ± 0.6 µM in assay [1]; greater than 100 µM in assay [2]; 1.04 ± 0.54 µM in assay [3]; 0.43 ± 0.19 µM in assay [4]; 0.56 ± 0.24 µM in assay [5]. Also, the “potency compared to TPH104” value in the assay on TNBC cell lines is on record as “moderate potency compared to TPH104”.
Take `COc1cc(OC)c(OC)cc1/C=N/Nc1ncnc2scc(-c3ccc(Cl)cc3)c12` [TPH104p]: the IC50 in assay [1] was greater than 100 µM; in assay [2] it was greater than 100 µM; in assay [3] it was 23 ± 0.59 µM; in assay [4], 62.2 ± 8.83 µM; in assay [5], 55.9 ± 0.98 µM. In the assay on TNBC cell lines, the “potency compared to TPH104” value is recorded as “poor or no potency”.
In the case of `COc1cc(/C=N/Nc2ncnc3scc(-c4ccccc4)c23)ccc1O` [TPH104q], the IC50 in assay [1] was 23.5 ± 1.12 µM; in assay [2], greater than 100 µM; in assay [3] it was 21.4 ± 3.11 µM; in assay [4], 18.6 ± 2.57 µM; in assay [5] it was 22.2 ± 0.78 µM. Besides, in the assay on TNBC cell lines, the “potency compared to TPH104” value is recorded as “poor or no potency”.
With “necrostatin-1 [nec-1, reference compound]”, the “expression of RIP, p-RIP, MLKL, and caspase 8” value in assay [6] was “significantly downregulated”.
